Results taken from paper PMC4077001, “Purification and characterization of a novel lipopeptide from Streptomyces amritsarensis sp. nov. active against methicillin-resistant Staphylococcus aureus” (AMB Express, 2014).
≈ marks a conversion by molar mass, not a printed value. Ends that are not written are not given here.

Experiments:
[1] = system: Chinese hamster ovary (CHO) cell line; assay: cells; type: cell-based; conditions: 48 h; for growth inhibition: SRB, OD 540 nm
Protocol: In vitro cytotoxicity was evaluated using sulforhodamine B dye assay (Skehan et al. [1990]). The Chinese hamster ovary cell line (CHO) was used for the assay. Camptothecin (CPT), an anticancer drug was used as standard. The 96-well tissue culture plate, containing different concentrations of lipopeptide (2.5- 25 μg/ml) and CHO cells, was incubated for 48 h and the cell growth was stopped with trichloroacetic acid (50% TCA, 50 μl). The optical density (OD) was recorded at 540 nm on ELISA reader and percent growth inhibition was calculated.

[2] = system: Salmonella typhimurium (TA98); assay: Ames test (Salmonella reverse mutation test); type: cell-based
Protocol: Mutagenicity of the lipopeptide was evaluated by Ames test (Maron and Ames [1983]). This Salmonella reverse mutation test is based on histidine dependence and mutations in Salmonella typhimurium (TA98/ MTCC 1251, IMTECH, Chandigarh). Concentrations of the lipopeptide used for checking toxicity were 50 and 100 μg 0.1 ml^−1 plate^−1. The overnight grown, 0.1 ml bacterial culture and 0.1 ml of lipopeptide were added to 2.0 ml of top agar. The contents were mixed and poured onto glucose minimal agar plates immediately. The plates were […] incubated at 37°C for 48 h. The experiment was repeated to confirm the results. To determine the spontaneous reversion which is characteristic of the tester strain (TA 98), negative control (0.1 ml bacterial culture + 0.1 ml DMSO plate^−1) was run while 4-Nitro-o-phenylenediamine (20 μg 0.1 ml^−1 plate^−1) was used as a positive control mutagen. The mutagenic potential of the lipopeptide was determined by comparing the number of colonies with control plates where no test compound was added.

proteinase K = molecular target: T1, proteinase K (Parengyodontium album, UniProt P06873); assay: Sensitivity to enzymes; type: in vitro ADME; conditions: lipopeptide 1.0 mg/ml + proteinase K (~30 U/mg) 1.0 mg/ml in 50 mM phosphate buffer pH 7.0, equal volumes (20 μl each), 37°C, 12 h; residual activity by disc diffusion
T1 construct: purchased Sigma Aldrich
T1 sequence (P06873 106-384): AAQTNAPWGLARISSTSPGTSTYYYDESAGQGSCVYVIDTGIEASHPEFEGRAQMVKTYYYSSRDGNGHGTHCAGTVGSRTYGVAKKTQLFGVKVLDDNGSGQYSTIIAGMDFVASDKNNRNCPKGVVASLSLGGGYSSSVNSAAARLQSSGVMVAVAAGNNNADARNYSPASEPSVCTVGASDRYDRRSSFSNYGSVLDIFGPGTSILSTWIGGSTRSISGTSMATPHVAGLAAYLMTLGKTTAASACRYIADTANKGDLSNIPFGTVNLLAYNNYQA
Text: (§1) All enzymes were purchased from Sigma Aldrich.

[3] = system: Staphylococcus epidermidis (MTCC 435); assay: MIC, microtiter plate dilution assay; type: cell-based; conditions: 37°C, OD 600 nm at 24 and 48 h, triplicates
Protocol: (§2) The MIC of purified lipopeptide was evaluated by using a microtiter plate dilution assay. Test bacteria were grown to logarithmic phase under optimal conditions (up to 0.3 OD) and the test was performed in triplicates. To each well of the microtiter plate, 200 μl of fresh nutrient medium and 50 μl of bacterial suspension were added. Subsequently, different dilutions (50 μl) of freshly prepared samples were added to each well. The first column of the microtiter plate was left as a blank, containing fresh medium only. The microtiter plates were incubated at 37°C and OD was measured at 600 nm at 24 and 48 h using ELISA microplate reader (Bio-rad, Model 680XR).

[4] = system: Methicillin Resistant Staphylococcus aureus (MRSA); assay: MIC, microtiter plate dilution assay; type: cell-based; conditions: clinical strain, 37°C, OD 600 nm at 24 and 48 h, triplicates
Protocol: as §2

[5] = system: Bacillus subtilis (MTCC 619); assay: MIC, microtiter plate dilution assay; type: cell-based; conditions: 37°C, OD 600 nm at 24 and 48 h, triplicates
Protocol: as §2

[6] = system: Mycobacterium smegmatis (MTCC 6); assay: MIC, microtiter plate dilution assay; type: cell-based; conditions: 37°C, OD 600 nm at 24 and 48 h, triplicates
Protocol: as §2

[7] = Effect of pH on lipopeptide activity; type: physicochemical; conditions: for Residual activity (%): residual antimicrobial activity
Text: as §1

[8] = system: Staphylococcus epidermidis (MTCC 435); assay: Kirby-Bauer disk diffusion susceptibility test; type: cell-based; conditions: 10 μg lipopeptide per 6 mm disc, Mueller-Hinton agar, 24-48 h; duplicates, repeated thrice
Protocol: (§3) Sensitivity of test organisms to purified lipopeptide was measured in terms of zone of inhibition using Kirby-Bauer disk diffusion susceptibility test (Bauer et al. [1966]). The plates containing Mueller-Hinton agar, yeast malt agar and potato dextrose agar were seeded with test bacteria, yeasts and fungi, respectively. Filter paper discs (6 mm) impregnated with 10 μg of lipopeptide were placed on media plates. The diameter of the resultant zone of inhibition was measured in mm after 24- 48 hours of incubation. Each experiment was performed in duplicates and repeated thrice. Various test organisms used in the study included Bacillus subtilis (MTCC 619), Mycobacterium smegmatis (MTCC 6), Staphylococcus epidermidis (MTCC 435), Escherichia coli (MTCC 1885), Klebsiella pneumoniae sub sp. pneumoniae (MTCC 109), Enterobacter aerogenes (MTCC 111), Salmonella typhi (MTCC 733), multi-drug resistant E. coli, MRSA, VRE, Candida albicans (MTCC 3017), Rhodotorula rubra (MTCC 248), Colletotrichum acutatum (MTCC 1037), Cercospora beticola (GenBank acc. no. KJ461435), Fusarium oxysporum f.sp. dianthi (MTCC 6659), and Alternaria brassicicola (MTCC 2102).

[9] = system: tested Gram-negative bacteria; assay: Kirby-Bauer disk diffusion susceptibility test; type: cell-based; conditions: 10 μg per disc
Protocol: as §3

fungi = assay: Kirby-Bauer disk diffusion susceptibility test; type: cell-based; conditions: 10 μg per disc
Protocol: as §3

[10] = system: Bacillus subtilis (MTCC 619); assay: Kirby-Bauer disk diffusion susceptibility test; type: cell-based; conditions: 10 μg lipopeptide per 6 mm disc, Mueller-Hinton agar, 24-48 h; duplicates, repeated thrice
Protocol: as §3

[11] = system: Mycobacterium smegmatis (MTCC 6); assay: Kirby-Bauer disk diffusion susceptibility test; type: cell-based; conditions: 10 μg lipopeptide per 6 mm disc, Mueller-Hinton agar, 24-48 h; duplicates, repeated thrice
Protocol: as §3

Heat stability assay = type: physicochemical; conditions: for Residual activity (%): residual antimicrobial activity
Text: as §1

trypsin [12] = molecular target: T2, trypsin (Bos taurus, UniProt P00760); conditions: lipopeptide 1.0 mg/ml + trypsin (~10,000 U/mg) 1.0 mg/ml in 50 mM phosphate buffer pH 7.0, equal volumes (20 μl each), 37°C, 12 h; residual activity by disc diffusion
T2 sequence (P00760 24-246): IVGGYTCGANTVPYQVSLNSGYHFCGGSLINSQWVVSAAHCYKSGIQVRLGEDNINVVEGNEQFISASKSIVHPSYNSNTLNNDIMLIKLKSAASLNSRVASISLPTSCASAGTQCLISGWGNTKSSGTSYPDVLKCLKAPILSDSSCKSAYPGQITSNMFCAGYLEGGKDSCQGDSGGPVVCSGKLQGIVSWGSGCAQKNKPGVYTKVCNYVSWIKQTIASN
Protocol: (§4) Sensitivity to temperature was determined by incubating the purified lipopeptide at different temperatures viz. 50°C, 60°C, 70°C, 80°C , 90°C, 100°C and 121°C for different durations. To determine the optimum pH for activity, purified compound was incubated over pH range of 3.0–12.0 for 30 min at 37°C. The sensitivity of the lipopeptide (1.0 mg/ml) to enzymes was tested against proteinase K (~30 U/mg), trypsin (~10,000 U/mg) and lipase (~9 U/mg). All enzymes were purchased from Sigma Aldrich. Enzyme solutions were prepared at 1.0 mg/ml in 50 mM phosphate buffer (pH 7.0). Equal volumes of enzyme solution and antimicrobial compound (20 μl each) were mixed and incubated at 37°C for 12 h. The enzyme reaction was terminated by heating reaction mixture at 80°C and residual activity was determined by disc diffusion method.

lipase [13] = conditions: lipopeptide 1.0 mg/ml + lipase (~9 U/mg) 1.0 mg/ml in 50 mM phosphate buffer pH 7.0, equal volumes (20 μl each), 37°C, 12 h; residual activity by disc diffusion
Protocol: as §4

[14] = Surface tension, Du-Nouy-Ring method; type: physicochemical; conditions: lipopeptide 0.2% (w/v), lowered from 72
Protocol: (§5) Biosurfactant property of lipopeptide was determined using the qualitative drop-collapse test (Youssef et al. [2004]). In this method, mineral oil (2 μl) was added to 96-well microtitre plate. The plate was equilibrated for 1 h at 37°C and 5 μl of the lipopeptide (10 μg, dissolved in water) was added to the surface of the oil and drop shape was observed after 1 min. The surface tension of a lipopeptide (0.2%, w/v) was measured using Du-Nouy-Ring method (Du Noüy and Pierre [1925]).

MRSA = assay: Kirby-Bauer disk diffusion susceptibility test; type: cell-based, Staphylococcus aureus; conditions: clinical isolate; 10 μg lipopeptide per 6 mm disc, Mueller-Hinton agar, 24-48 h; duplicates, repeated thrice
Protocol: as §3

[15] = Qualitative drop-collapse test; type: physicochemical; conditions: 2 μl mineral oil, 5 μl lipopeptide (10 μg, dissolved in water), drop shape after 1 min
Protocol: as §5

lipase [16] = conditions: ref Guo et al. 2012; cited from earlier work
Text: (§6) Antimicrobial lipopeptides have been purified from many bacterial genera including several Streptomyces spp. such as S. violaceus var. aspartocinius (aspartocin), S. griseoflavus (tsushimycin), S. viridochromogens (laspartomycin), S. coelicolor (calcium-dependent antibiotic), S. roseosporus (daptomycin), S. fradiae (A54145), S. parvulus var. parvuli (parvuline) and S. canus (amphomycin) (Schneider et al. [2009]). The present study reports the production of another novel lipopeptide from a Streptomyces sp. The primary structure of lipopeptide was determined using a combination of chemical rea ...

trypsin [17] = molecular target: T2, trypsin; set-up: purchased Sigma Aldrich; conditions: ref Guo et al. 2012; cited from earlier work
Text: as §6

Q: With `CC[C@@]1(O)C(=O)OCc2c1cc1n(c2=O)Cc2cc3ccccc3nc2-1` [camptothecin, Camptothecin, reference compound] as the compound, how does the IC50 ([1]; Cricetulus griseus, CHO cells, SRB assay) read?
A: 0.959 µg/mL (≈ 2.75 µM)

Q: Which “number of revertant colonies” value ([2]; positive control, 20 μg plate^-1, compared with negative control) does the source give for `Nc1ccc([N+](=O)[O-])cc1N` [positive mutagen, 4-Nitro-o-phenylenediamine, reference compound] here?
A: considerably higher

Q: Which “stability to proteinase K” value (proteinase K) does the source give for “ATGSHQ [lipopeptide, novel antimicrobial lipopeptide from Streptomyces amritsarensis; Ala-Thr-Gly-Ser-His-Gln, C-terminal amino acid linked to aliphatic chain -(CH2)7-CH2-(CH3)2-]” here?
A: negligible loss in activity

Q: And the MIC [3]?
A: 15 µg/mL

Q: What about the MIC [4] of the same compound?
A: 45 µg/mL

Q: And the MIC [5]?
A: 10 µg/mL

Q: And the MIC [6]?
A: 25 µg/mL

Q: What about the “change in activity profile” value ([7]; between pH 5.0–9.0) of the same compound?
A: did not show any change

Q: What about the “Residual activity (%)” value ([7]; pH 2, 1 h/4°C) of the same compound?
A: 0%

Q: What about the “Residual activity (%)” value ([7]; pH 3, 1 h/4°C) of the same compound?
A: 72.7%

Q: And the “Residual activity (%)” value ([7]; pH 4, 1 h/4°C)?
A: 84.6%

Q: And the “Residual activity (%)” value ([7]; pH 5, 1 h/4°C)?
A: 100%

Q: What about the “Residual activity (%)” value ([7]; pH 6, 1 h/4°C) of the same compound?
A: 100%

Q: And the “Residual activity (%)” value ([7]; pH 7, 1 h/4°C)?
A: 100%

Q: What about the “Residual activity (%)” value ([7]; pH 8, 1 h/4°C) of the same compound?
A: 100%

Q: What about the “Residual activity (%)” value ([7]; pH 9, 1 h/4°C) of the same compound?
A: 100%

Q: And the “Residual activity (%)” value ([7]; pH 10, 1 h/4°C)?
A: 86.3%

Q: And the “Residual activity (%)” value ([7]; pH 11, 1 h/4°C)?
A: 68.1%

Q: What about the “Residual activity (%)” value ([7]; pH 12, 1 h/4°C) of the same compound?
A: 0%

Q: What about the inhibition zone [8] of the same compound?
A: 17 mm

Q: And the antimicrobial activity [9]?
A: did not show activity

Q: What about the antimicrobial activity (fungi) of the same compound?
A: did not show activity

Q: And the inhibition zone [10]?
A: 21 mm

Q: And the inhibition zone [11]?
A: 15 mm

Q: What about the “Residual activity (%)” value (Heat stability assay; 50°C, 1 h) of the same compound?
A: 100%

Q: What about the “Residual activity (%)” value (Heat stability assay; 60°C, 1 h) of the same compound?
A: 100%

Q: What about the heat stability (Heat stability assay; 70°C for 1 h) of the same compound?
A: completely stable

Q: What about the “Residual activity (%)” value (Heat stability assay; 70°C, 1 h) of the same compound?
A: 100%

Q: And the “Residual activity (%)” value (Heat stability assay; 80°C, 1 h)?
A: 84.2%

Q: What about the “Residual activity (%)” value (Heat stability assay; 90°C, 15 min) of the same compound?
A: 95.0%

Q: And the “Residual activity (%)” value (Heat stability assay; 100°C, 15 min)?
A: 86.3%

Q: What about the loss of activity (Heat stability assay; 100°C, 15 minutes incubation) of the same compound?
A: 13.7%

Q: What about the “Residual activity (%)” value (Heat stability assay; 121°C, 15 min (304 KPa), autoclaving) of the same compound?
A: 81.8%

Q: And the “reduction of antimicrobial activity” value (Heat stability assay; after autoclaving (121°C for 15 min))?
A: 18.2%

Q: And the growth inhibition ([1]; 2.5 μg/ml)?
A: 2.9%

Q: And the growth inhibition ([1]; 6.25 μg/ml)?
A: 16.8%

Q: And the growth inhibition ([1]; 12.5 μg/ml)?
A: 19.25%

Q: And the growth inhibition ([1]; 18.75 μg/ml)?
A: 23.28%

Q: What about the growth inhibition ([1]; 25 μg/ml) of the same compound?
A: 28.9%

Q: And the stability to trypsin (trypsin [12])?
A: resistant

Q: What about the stability to lipase (lipase [13]) of the same compound?
A: resistant

Q: What about the “surface tension of water” value [14] of the same compound?
A: 37 mN m^−1

Q: And the inhibition zone (MRSA)?
A: 13 mm

Q: And the mutagenicity ([2]; 50 and 100 μg/0.1 ml per plate, 48 hours at 37°C)?
A: non-mutagenic

Q: And the drop-collapse test [15]?
A: collapsed the oil drop

Q: For paenibacterin, which resistance to lipase (lipase [16]) is on record?
A: resistant

Q: And the resistance to trypsin (trypsin [17])?
A: resistant
